Measurements from PubChem BioAssay (NCI).
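96-well plates; 48 h exposure; 5 concentrations. Endpoints by linear interpolation between flanking doses. Not reached: highest tested concentration assigned. The concentration for full growth arrest is given as TGI.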

How the values were obtained:
Test in all cases: growth of human tumour cells (NCI), 48 h
MALME-3M melanoma = tested on: MALME-3M melanoma
COLO 205 colon = tested on: COLO 205 colon
NCI-H226 lung = tested on: NCI-H226 lung
KM20L2 colon = tested on: KM20L2 colon
KM12 colon = tested on: KM12 colon
HCT-116 colon = tested on: HCT-116 colon
DLD-1 colon = tested on: DLD-1 colon
SK-OV-3 ovarian = tested on: SK-OV-3 ovarian
OVCAR-8 ovarian = tested on: OVCAR-8 ovarian
MOLT-4 leukemia = tested on: MOLT-4 leukemia
CCRF-CEM leukemia = tested on: CCRF-CEM leukemia
HOP-18 NSCLC = tested on: HOP-18 NSCLC
U251 CNS = tested on: U251 CNS
XF 498 CNS = tested on: XF 498 CNS
A549 NSCLC = tested on: A549 NSCLC
SK-MEL-5 melanoma = tested on: SK-MEL-5 melanoma
SW-620 colon = tested on: SW-620 colon
OVCAR-4 ovarian = tested on: OVCAR-4 ovarian
SNB-75 CNS = tested on: SNB-75 CNS
OVCAR-3 ovarian = tested on: OVCAR-3 ovarian
M19-MEL melanoma = tested on: M19-MEL melanoma
NCI-H522 lung = tested on: NCI-H522 lung
K-562 leukemia = tested on: K-562 leukemia
SF-295 CNS = tested on: SF-295 CNS
SF-539 CNS = tested on: SF-539 CNS
HT29 colon = tested on: HT29 colon
HCC-2998 colon = tested on: HCC-2998 colon
NCI-H23 lung = tested on: NCI-H23 lung
UACC-62 melanoma = tested on: UACC-62 melanoma
786-0 renal = tested on: 786-0 renal
SK-MEL-28 melanoma = tested on: SK-MEL-28 melanoma
SR leukemia = tested on: SR leukemia
CAKI-1 renal = tested on: CAKI-1 renal
NCI-H460 lung = tested on: NCI-H460 lung
ACHN renal = tested on: ACHN renal
OVCAR-5 ovarian = tested on: OVCAR-5 ovarian
HOP-92 NSCLC = tested on: HOP-92 NSCLC
SNB-78 CNS = tested on: SNB-78 CNS
M14 melanoma = tested on: M14 melanoma
SNB-19 CNS = tested on: SNB-19 CNS
DMS 114 small cell lung = tested on: DMS 114 small cell lung
HOP-62 NSCLC = tested on: HOP-62 NSCLC
HL-60(TB) leukemia = tested on: HL-60(TB) leukemia
EKVX NSCLC = tested on: EKVX NSCLC
IGROV1 ovarian = tested on: IGROV1 ovarian
TK-10 renal = tested on: TK-10 renal
UACC-257 melanoma = tested on: UACC-257 melanoma
A498 renal = tested on: A498 renal
DMS 273 small cell lung = tested on: DMS 273 small cell lung
RXF 393 renal = tested on: RXF 393 renal
LOX IMVI melanoma = tested on: LOX IMVI melanoma
LXFL 529 NSCLC = tested on: LXFL 529 NSCLC
SF-268 CNS = tested on: SF-268 CNS
HCT-15 colon = tested on: HCT-15 colon
SN12C renal = tested on: SN12C renal
SK-MEL-2 melanoma = tested on: SK-MEL-2 melanoma
RPMI-8226 leukemia = tested on: RPMI-8226 leukemia
UO-31 renal = tested on: UO-31 renal

Measured: TGI

Cc1ccc(S(=O)(=O)SCc2ccccc2)cc1
6.22 µM: MOLT-4 leukemia
47.4 µM: LXFL 529 NSCLC
5.76 µM: HL-60(TB) leukemia
45.7 µM: SF-539 CNS
57.6 µM: KM12 colon
43.9 µM: KM20L2 colon
60.9 µM: HOP-92 NSCLC
> 84.2 µM: SNB-75 CNS
50.4 µM: SN12C renal
> 69.5 µM: NCI-H460 lung | DMS 273 small cell lung
> 91.7 µM: SNB-19 CNS
> 77.4 µM: M19-MEL melanoma
> 85.7 µM: SF-268 CNS
37.2 µM: LOX IMVI melanoma
> 89.7 µM: SF-295 CNS
> 75.6 µM: SK-MEL-2 melanoma
> 95.9 µM: SK-OV-3 ovarian
7.25 µM: CCRF-CEM leukemia
40.9 µM: NCI-H226 lung
47.8 µM: DMS 114 small cell lung
81.5 µM: MALME-3M melanoma
> 79.3 µM: HOP-62 NSCLC
58.8 µM: U251 CNS
27.3 µM: K-562 leukemia
28.6 µM: HCT-15 colon
33.4 µM: OVCAR-8 ovarian
95.2 µM: XF 498 CNS
26.4 µM: HCT-116 colon
30 µM: SNB-78 CNS
> 75.2 µM: CAKI-1 renal
21.7 µM: DLD-1 colon
54.5 µM: SK-MEL-5 melanoma
62.7 µM: SR leukemia
36.2 µM: NCI-H23 lung
97.2 µM: EKVX NSCLC
47.1 µM: HT29 colon
20.9 µM: NCI-H522 lung
27.4 µM: COLO 205 colon
31.4 µM: OVCAR-4 ovarian | 786-0 renal
> 67.9 µM: UACC-62 melanoma
57.4 µM: HCC-2998 colon
45.5 µM: OVCAR-3 ovarian
14.7 µM: SW-620 colon
69.2 µM: RXF 393 renal
33.5 µM: RPMI-8226 leukemia
39.7 µM: M14 melanoma
> 100 µM: HOP-18 NSCLC | A549 NSCLC | SK-MEL-28 melanoma | ACHN renal | OVCAR-5 ovarian | IGROV1 ovarian | TK-10 renal | A498 renal | UO-31 renal
> 94.2 µM: UACC-257 melanoma

CN=C(NC)N(C)c1nc(=[N+](C)C)ss1
> 100 µM: NCI-H226 lung | KM12 colon | HCT-116 colon | SK-OV-3 ovarian | OVCAR-8 ovarian | MOLT-4 leukemia | CCRF-CEM leukemia | U251 CNS | A549 NSCLC | SK-MEL-5 melanoma | SW-620 colon | OVCAR-3 ovarian | NCI-H522 lung | K-562 leukemia | SF-295 CNS | SF-539 CNS | HT29 colon | HCC-2998 colon | NCI-H23 lung | UACC-62 melanoma | 786-0 renal | SK-MEL-28 melanoma | SR leukemia | NCI-H460 lung | ACHN renal | OVCAR-5 ovarian | HOP-92 NSCLC | SNB-78 CNS | M14 melanoma | SNB-19 CNS | HOP-62 NSCLC | HL-60(TB) leukemia | EKVX NSCLC | IGROV1 ovarian | TK-10 renal | UACC-257 melanoma | A498 renal | DMS 273 small cell lung | RXF 393 renal | LOX IMVI melanoma | LXFL 529 NSCLC | SF-268 CNS | HCT-15 colon | SN12C renal | SK-MEL-2 melanoma | UO-31 renal
98.3 µM: CAKI-1 renal

CC1=C/C(=C2/N=C(N(C)C)SS2)C(C)=N1
> 100 µM: MALME-3M melanoma | COLO 205 colon | NCI-H226 lung | KM20L2 colon | KM12 colon | HCT-116 colon | DLD-1 colon | SK-OV-3 ovarian | OVCAR-8 ovarian | MOLT-4 leukemia | HOP-18 NSCLC | U251 CNS | XF 498 CNS | A549 NSCLC | SW-620 colon | OVCAR-4 ovarian | SNB-75 CNS | OVCAR-3 ovarian | M19-MEL melanoma | NCI-H522 lung | K-562 leukemia | SF-295 CNS | SF-539 CNS | HT29 colon | HCC-2998 colon | NCI-H23 lung | 786-0 renal | SK-MEL-28 melanoma | SR leukemia | CAKI-1 renal | NCI-H460 lung | ACHN renal | OVCAR-5 ovarian | HOP-92 NSCLC | SNB-78 CNS | M14 melanoma | SNB-19 CNS | DMS 114 small cell lung | HOP-62 NSCLC | HL-60(TB) leukemia | EKVX NSCLC | IGROV1 ovarian | TK-10 renal | UACC-257 melanoma | A498 renal | DMS 273 small cell lung | RXF 393 renal | LOX IMVI melanoma | LXFL 529 NSCLC | SF-268 CNS | HCT-15 colon | SN12C renal | RPMI-8226 leukemia | UO-31 renal

O=C(NC(=O)c1cc2cc(Br)cc(Br)c2oc1=O)Oc1ccccc1
72 µM: ACHN renal
33.6 µM: SNB-75 CNS
> 100 µM: MALME-3M melanoma | COLO 205 colon | NCI-H226 lung | KM20L2 colon | KM12 colon | HCT-116 colon | DLD-1 colon | SK-OV-3 ovarian | OVCAR-8 ovarian | MOLT-4 leukemia | CCRF-CEM leukemia | HOP-18 NSCLC | U251 CNS | XF 498 CNS | A549 NSCLC | SK-MEL-5 melanoma | SW-620 colon | OVCAR-4 ovarian | OVCAR-3 ovarian | M19-MEL melanoma | K-562 leukemia | SF-295 CNS | SF-539 CNS | HT29 colon | HCC-2998 colon | NCI-H23 lung | UACC-62 melanoma | 786-0 renal | SK-MEL-28 melanoma | CAKI-1 renal | NCI-H460 lung | OVCAR-5 ovarian | HOP-92 NSCLC | SNB-78 CNS | M14 melanoma | SNB-19 CNS | DMS 114 small cell lung | HOP-62 NSCLC | EKVX NSCLC | IGROV1 ovarian | TK-10 renal | UACC-257 melanoma | A498 renal | DMS 273 small cell lung | LOX IMVI melanoma | LXFL 529 NSCLC | SF-268 CNS | HCT-15 colon | SN12C renal | RPMI-8226 leukemia | UO-31 renal
83.3 µM: RXF 393 renal
